Results: paper PMC9585939, “Unveiling a family of spiro-β-lactams with anti-HIV and antiplasmodial activity via phosphine-catalyzed [3+2] annulation of 6-alkylidene-penicillanates and allenoates” (Frontiers in Chemistry, 2022)
Read-outs that look alike come from different tables or passages of the source.

What was measured:
HIV-2 03PTHCC19 [1] = test system: HIV-2 03PTHCC19; set-up: method as in Bártolo et al., 2021; conditions: ref Bártolo et al., 2021, cited from earlier work
[2] = test system: P. falciparum strain NF54; set-up: method as in Bártolo et al., 2021; Alves et al., 2021c; conditions: erythrocytic infection; ref Bártolo et al., 2021; Alves et al., 2021c; cited from earlier work
P. berghei hepatic stage [3] = test system: P. berghei hepatic stage; set-up: method as in Bártolo et al., 2021; Alves et al., 2021c; conditions: hepatic infection; ref Bártolo et al., 2021; Alves et al., 2021c; cited from earlier work
HIV-1 SG3.1 [4] = conditions: ref Bártolo et al., 2021, cited from earlier work
HIV protease = test system: HIV protease; set-up: method as in Bártolo et al., 2021; conditions: ref Bártolo et al., 2021; cited from earlier work
TZM-bl cells = test system: TZM-bl cells; set-up: method as in Bártolo et al., 2021; conditions: lead molecule, ref Bártolo et al., 2021; cited from earlier work
[5] = test system: P. falciparum strain NF54; test: Blood stage antiplasmodial activity, SYBR green I flow cytometry; format: cell-based; conditions: Plasmodium falciparum, NF54, 48 h
Description: Ring-stage synchronized cultures of P. falciparum strain NF54 at 2.5% hematocrit and at approximately 1% parasitemia were incubated with test compounds or dimethyl sulfoxide (DMSO, vehicle control) in 96-well plates for 48 h at 37°C in a 5% CO2 and 5% O2 atmosphere. Stock solutions of chloroquine (positive control) and compounds 9i, 12a, and 14a were prepared in DMSO. Working solutions were prepared from the stock solutions in complete malaria culture medium (CMCM), which consists of RPMI 1640 supplemented with 25 mM HEPES, 2.4 mM L-glutamine, 50 μg/ml gentamicin, 0.5% w/v Albumax, 11 mM glucose, 1.47 mM hypoxanthine, and 37.3 mM NaHCO3. For each measurement, 5 μl of the culture (approximately 800,000 cells) were stained with the DNA-specific dye SYBR green I. After 20 min of incubation in the dark, the stained sample was analyzed by flow cytometry. Approximately 100,000 events were analyzed in each flow cytometry measurement. Two independent experiments were performed, and all samples were analyzed in triplicate.

P. berghei hepatic stage [6] = test: In vitro hepatic infection of Huh7 cells by luciferase-expressing P. berghei; format: cell-based; conditions: Plasmodium berghei
Description: The inhibitory activity of test compounds on in vitro hepatic infection by P. berghei was determined by comparing the parasite load in compound- and solvent-treated P. berghei-infected Huh7 cells. Infection load was assessed by measurement of luminescence intensity in Huh7 cells infected, with a firefly luciferase-expressing P. berghei line, as previously described ([Ploemen et al., 2009]; [António et al., 2017]). Briefly, Huh7 cells were seeded in 96-well plates (1.0 × 10^4 cells per well) the day before drug treatment and infection. The medium was replaced by another medium containing the appropriate concentration of each compound approximately 1 h prior to infection with sporozoites freshly obtained through disruption of salivary glands of infected female Anopheles stephensi mosquitoes. Sporozoite addition was followed by centrifugation at 1,800 g for 5 min. Parasite infection load was measured 48 h after infection by a bioluminescence assay (Biotium). Cell confluence, a surrogate measure of compound toxicity to Huh7 cells, was assessed by fluorescence measurements using the alamarBlue assay, according to the manufacturer’s instructions. […] Specifically, non-linear regression analysis was employed to fit the normalized results of the dose-response curves, and IC50 values were determined using GraphPad Prism 8.0 (GraphPad Software, La Jolla, California, United States).

HIV-1 SG3.1 [7] = test: microbe, parasite or virus in culture; conditions: Human immunodeficiency virus 1, TZM-bl
HIV-2 03PTHCC19 [8] = test: microbe, parasite or virus in culture; conditions: Human immunodeficiency virus 2, TZM-bl
[9] = Cellular viability assay (alamarBlue) in TZM-bl cells; format: cell-based; conditions: human, 50% cytotoxic concentration

CC1(C)SC2N(C(=O)C23CC=C(C(=O)OCc2ccccc2)C3C(=O)c2ccccc2)C1C(=O)OC(c1ccccc1)c1ccccc1 (centres unmarked) [BSS-730A]
MPI (%) 25 μg/mL (HIV-2 03PTHCC19 [1]; HIV-2, 25 μg/mL, lead molecule): 99% | Therapeutic index (CC50/IC50) (HIV-2 03PTHCC19 [1]; HIV-2, lead molecule): 9605.00 | IC90 (HIV-2 03PTHCC19 [1]; lead molecule): 64 nM | IC50 (HIV-2 03PTHCC19 [1]): 8 nM | IC50 [2]: 430 ± 40 nM | IC50 (P. berghei hepatic stage [3]): 550 ± 140 nM | MPI (%) 25 μg/mL (HIV-1 SG3.1 [4]; HIV-1, 25 μg/mL, lead molecule): 99% | Therapeutic index (CC50/IC50) (HIV-1 SG3.1 [4]; HIV-1, lead molecule): 5488.57 | IC90 (HIV-1 SG3.1 [4]; lead molecule): 25 nM | IC50 (HIV-1 SG3.1 [4]; Alves et al., 2021c): 14 nM | HIV antiprotease activity (in words) (HIV protease): no HIV antiprotease activity | CC50 (TZM-bl cells): 76800 nM

CC1(C)SC2N(C(=O)C23CC=C(C(=O)OCc2ccccc2)C3C(=O)c2ccc(F)cc2)C1C(=O)OC(c1ccccc1)c1ccccc1 (stereo not drawn) [Compound 12a, (1′R,2′R)-benzhydryl spiro[(2-(4-fluorobenzoyl)-3-benzyloxycarbonylcyclopent-3-ene)-1′,6-penicillanate]]
melting point: 64.5 to 66.5 °C | IC50 [5]: 560 ± 126 nM | inhibition at 1 µM (P. berghei hepatic stage [6]; Huh-7, read-out: percentage of inhibition of hepatic infection): < 50% | IC50 (P. berghei hepatic stage [6]; Huh-7, hepatic stage, Huh7 cells, 48 h after infection): 924 ± 27 nM | IC50 (HIV-1 SG3.1 [7]; 48 h, read-out: IC50 HIV-1, TZM-bl cells, 48 h): 19 nM | IC90 (HIV-1 SG3.1 [7]; 48 h, read-out: IC90 HIV-1): 54 nM | inhibition at 25 µg/mL (HIV-1 SG3.1 [7]; read-out: MPI (%) 25 μg/mL): 93% | IC50 (HIV-2 03PTHCC19 [8]; 48 h, read-out: IC50 HIV-2): 11 nM | IC90 (HIV-2 03PTHCC19 [8]; 48 h, read-out: IC90 HIV-2): 55 nM | inhibition at 25 µg/mL (HIV-2 03PTHCC19 [8]; read-out: MPI (%) 25 μg/mL): 100% | CC50 [9]: 58100 nM
